According to patent publication US20090227606A1, “Methods for Preventing or Treating Acute and Chronic Pain” (priority 2006, published 2009):
Entries after “also recorded” stand apart in the source; their conditions may differ.

Assays:
GLAST = experiment: Western blot of cultured astrocytes, GLAST protein; format: cell-based, rat
Procedure: (§1) After approximately 14 days (2 days after subplating into plates, DIV 14) astrocytes had formed a confluent monolayer. […] Phase contrast microscopy was then carried out in order to assess the morphology of cells after the various treatments. Length of astrocyte processes was quantified by measuring all processes in 2-3 phase contrast images/group by an independent observer, blinded to the treatment groups using Image J v1.34s (National Institutes of Health, Bethesda, Md.).
(§2) Cells were scraped into PBS containing a protease inhibitor cocktail (1:1000, Sigma Chemical Co., St. Louis, Mo.) and then lysed by sonication in 5 one-second pulses. The samples were stored at −80° C. until use. Total protein was determined using the Lowry method (DC assay, Bio-Rad, Hercules, Calif.). Forty micrograms of protein (diluted in sample buffer and boiled) and standard protein markers were subjected to SDS/7.5% polyacrylamide gel electrophoresis and transferred to polyvinylidene difluoride (PVDF) membranes. Nonspecific binding was blocked by incubation with 5% milk/PBS-Tween at room temperature for 1 hour followed by incubation overnight at 4° C. with rabbit anti-GLT-1 (1:500) or guinea pig anti-GLAST (1:2500). The following day, blots were washed and incubated for 1 hour at room temperature with goat anti-rabbit HRP-conjugated secondary (1:3000) or goat anti-guinea pig HRP-conjugated secondary antibody (1:5000) and visualized with enhanced chemiluminescence (ECL). Images were obtained using the Typhoon Imaging System (Amersham-GE Healthcare, Piscataway, N.J.). Finally, blots were incubated for 15 minutes in stripping buffer and reprobed with a monoclonal mouse anti-β-actin antibody (1:10,000) as a loading control. Densitometric analysis was performed using ImageQuant 5.2 (Molecular Dynamics, GE Healthcare, Piscataway, N.J.).

GLT-1 = experiment: Western blot of cultured astrocytes, GLT-1 protein; format: cell-based, rat
Procedure: as §1, §2

[1] = tested on: Na+-dependent glutamate transport; experiment: Na+-dependent [3H]-glutamate uptake in cultured astrocytes; format: cell-based, rat
Procedure: Primary astrocytes were plated in 6-well plates, as described above. […] Where indicated, 100 μM dihydrokainate (DHK) was added to wells for 10 minutes before the addition of the substrate. Subsequently, [^3H]-glutamate in Na^+ Krebs buffer or Na^+-free Krebs buffer (choline buffer) was added for 4 minutes at 37° C. The reaction was stopped by washing three times with ice cold buffer (0.05 M Tris/0.16 M NaCl, pH 7.4), and cells were lysed with 1 ml 0.1 N NaOH. The radioactivity in a 500 μl lysate aliquot was determined by liquid scintillation counting and a fraction of the lysate was also used for determination of protein concentration using the Lowry method (DC assay, Bio-Rad, Hercules, Calif.). Na^+-dependent transport was calculated as the difference in the radioactivity accumulated in the presence and absence of Na^+ and calculated as nmol/mg protein/min. Results are expressed as uptake relative to control samples.

GLAST mRNA = experiment: Real Time RT-PCR of cultured astrocytes, GLAST mRNA; format: cell-based, rat
Procedure: as §1
Total RNA was isolated from astrocyte cultures using the Qiagen RNeasy mini-kit (Qiagen Inc., Valencia, Calif.) according to the manufacturer's protocol for isolation of total RNA from animal cells. Reverse transcription (RT) was carried out using the high-capacity cDNA archive kit (Applied Biosystems, Foster City, Calif.) according to the vendor's protocol. Real-time RT-PCR reactions were carried out in a total reaction volume of 25 μL containing a final concentration of 1.5 U Platinum Taq DNA polymerase (Invitrogen Corporation, Carlsbad, Calif.); 20 mM Tris HCl (pH 8.4); 50 mM KCl; 3 mM MgCl2; 200 μM dGTP, dCTP, and dATP; 400 μM dUTP and 1 U of UDG (uracyl DNA glycosylase); 900 nM of forward and reverse primers; 300 nM Taqman probe; and 5 μL of cDNA (50 ng) from the RT step. The iCycler™ Multicolor Real-Time PCR detection system (Bio-Rad Laboratories, Hercules, Calif.) was used to quantify PCR product. The fluorescence and threshold values (CT) obtained were used to compare the relative amount of target mRNA in experimental groups to those of controls using the 2^−ΔΔC^T method (Livak, K. J. and T. D. Schmittgen. 2001. Methods 25:402-408). Each experiment was run twice and samples were run in duplicate. For each sample, the mean CT value for the control gene (GAPDH) was then subtracted from the mean CT value for the gene of interest (GLT-1, GLAST) to obtain a ΔCT value. […] The relative fold change from control was then expressed by calculation of 2^−ΔΔC^T for each sample and the results are expressed as the group mean fold change±SEM.

[2] = tested on: L5 spinal nerve transected mice; experiment: Mechanical allodynia after L5 spinal nerve transection in eGFP-GLT-1/DsRed-GLAST transgenic mice; format: in vivo, mouse; settings: for first day on which inhibition of mechanical allodynia was evident: 10 mg/kg i.p. daily
Procedure: In addition to studies using a rat model of pain for examining the role of glutamate transporters in the therapeutic response (analgesic) of propentofylline treatment, studies were also performed in a double transgenic reporter mouse line that expressed eGFP-GLT-1/DsRed-GLAST. Use of the transgenic mouse model further defined the effect of propentofylline on glutamate transporters, GLT-1 and GLAST. The animals were injected intraperitoneally with 10 mg/kg propentofylline in sterile saline or saline vehicle alone (n=5 to 8 per group). The first injections were administered one hour prior to L5 spinal nerve transection and continued daily in the evening (between 5 and 7 PM) until day 12 post-transection. Mice received either an L5 spinal nerve transection or sham surgery on day 0. The development of mechanical allodynia was monitored on days 1, 3, 5, 7, 9 and 12 as described for rats previously. The monitoring was performed in the morning at approximately 15 hours post-propentofylline or saline injection. Mice were transcardially perfused on day 12 post-transection, spinal cords were removed, and the tissue was processed for immunohistochemistry.
Transgenic mice on a C57B1/6 background were created according to the methods previously described (Regan et al. 2006. J. Neuroscience, in press). Briefly, in order to determine where in the central nervous system GLAST is expressed, transgenic mice were created using a bacterial artificial chromosome containing the GLAST gene plus 18 kb of DNA upstream of the first exon and 60 kb downstream of the last exon. DsRed cDNA was inserted into the first exon to allow expression of DsRed instead of GLAST when the promoter is active. Similarly, in order to investigate the distribution of GLT-1, transgenic mice expressing GLT-1 with eGFP running from the promoter were also created. These two types of transgenic mice were crossed and the resultant double transgenic eGFP-GLT-1/DsRed-GLAST mice were used in the experiments at 8 to 10 weeks of age.

[3] = 3 or 7 days, normalized to β-actin

For `CCCn1cnc2c1c(=O)n(CCCCC(C)=O)c(=O)n2C` [propentofylline], the “GLAST protein level, in words” value (GLAST; [3]) was “dose-dependently increased levels of GLAST protein”, the “increase in GLAST protein” value (GLAST; 7-day treatment, 1000 μM) was 6 fold and the “GLT-1 protein level, in words” value (GLT-1; [3]) was “dose-dependently increased levels of GLT-1 protein”. For the same molecule, the “increase in GLT-1 protein levels” value (GLT-1; 7 days, high dose) was 100 fold, the “increase in GLT-1 protein levels” value (GLT-1; after 3 days of treatment) was “about 10 fold” and the “sensitivity of increased glutamate transport to DHK inhibition” value ([1]; 100 μM DHK for 10 minutes before substrate) was “sensitive to DHK inhibition”. The “increase in glutamate uptake” value ([1]; 100 μM, 7 days) was 1.7 fold, the “increase in Na+-dependent glutamate transport” value ([1]; 1000 μM, 7 days) was 2.1 fold and the “glutamate uptake, in words” value ([1]; 7-day treated cultures) was “dose-dependent increase in glutamate uptake”. For the same molecule, the “increase in GLAST mRNA” value (GLAST mRNA; both days 3 and 7) was 1.5-2 fold, the “GLAST mRNA level, in words” value (GLAST mRNA; propentofylline 10, 100, 1000 μM, db-cAMP 250 μM, relative to GAPDH) was “enhancement of GLT-1 and GLAST mRNA levels in a dose-dependent manner; also recorded: dose-dependently induced GLT-1 and GLAST at the mRNA level” and the “first day on which inhibition of mechanical allodynia was evident” value ([2]; 0.008 g filament) was 3 days. For the same molecule, the “mechanical allodynia (0.008 g and 0.02 g von Frey filaments)” value ([2]; 10 mg/kg intraperitoneally daily, from one hour prior to transection) was “significant decrease in mechanical allodynia; also recorded: robustly inhibited the development of mechanical allodynia in mice; also recorded: remained similar to the sham control mice at every time point for both filaments” and the “first day on which inhibition of mechanical allodynia was evident” value ([2]; 0.02 g filament) was 1 days.
